{"source": "patent US11311556B2", "about": "“Topical dutasteride emulsions for treating endocrine therapy-induced alopecia” (Varsona Therapeutics, Inc., priority 2020, dated 2022)", "origin": "cited, not measured here", "key": {"DHT": {"test_system": "DHT", "conditions": "oral, subjects with BPH"}, "[1]": {"conditions": "416 men, 12 to 24 weeks"}}, "note": "Where two headings read alike, the source gives them in different places.", "data": [{"compound": "CC(C)(C)NC(=O)[C@H]1CC[C@H]2[C@@H]3CC[C@H]4NC(=O)C=C[C@]4(C)[C@H]3CC[C@]12C", "note": "[oral finasteride, finasteride]", "values": [{"measurement": "DHT blocked", "setting": "DHT; 5 mg daily dose", "value": "70.8+/−18.3%"}]}, {"compound": "C[C@]12C=CC(=O)N[C@@H]1CC[C@@H]1[C@@H]2CC[C@]2(C)[C@@H](C(=O)Nc3cc(C(F)(F)F)ccc3C(F)(F)F)CC[C@@H]12", "note": "[oral dutasteride, (5α, 17β)-N-{2,5 bis(trifluoromethyl)phenyl}-3-oxo-4-azaandrost-1-ene-17-carboxamide]", "values": [{"measurement": "DHT blocked", "setting": "DHT; 0.5 mg daily dose", "value": "94.7+/−3.3%"}, {"measurement": "DHT blocked", "setting": "DHT; 5 mg daily dose", "value": 98.4, "unit": "%"}, {"measurement": "Hair count results versus oral finasteride", "setting": "[1]", "value": "better hair count results than oral finasteride"}]}]}
